Test results as given in patent US20260070887A1 (Shenzhen Zhongge Biological Technology Co., Ltd., priority 2022, published 2026).
Like-named read-outs stand apart in the source and are kept apart here.

Key:
OVCAR-3 cells = test: OVCAR-3 cell proliferation (Cell Titer-Glo, 10 days); format: cell-based, human
Outline: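 IC50 was fitted by nonlinear regression of percent inhibition versus the 0.1% DMSO control. Luminescence was read with Cell Titer-Glo after 10 days of co-culture of logarithmic-phase cells (400/well) with compound at 0.12 nM–10 μM final, in medium with 20% fetal bovine serum and 0.01 mg/mL insulin.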

HCT116 cells = test: HCT116 cell anti-proliferation assay; format: cell-based; conditions: 6 days, Cell Titer-Glo
Procedure: HCT116 (ATCC, CCL-247) cells were cultured in McCoy's 5a complete medium (Gibco, 12330-031) containing 10% fetal bovine serum (Gibco, 10099-141C), 100 U penicillin and 100 μg/mL streptomycin (Gibco, 15140-122). The Promega kit Cell Titer-Glo (Promega: G7572) was used in this method for test.
HCT116 cells were cultured in T75 cell flasks (Corning, 430641) and the cells were placed in a 37° C., 5% CO2 incubator. Cells were passaged when reaching a cell density of 70%-80%, approximately twice per week. To perform the experiment, the test compounds were dissolved in DMSO to prepare a 10 mM stock solution, and the test compounds were added to the 384-well cell test plate (Corning, 3765) at the predetermined concentration (19.5 nM-[…]) using ECHO. […] cells were digested and 150 cells (60 μL medium) were seeded per well in the test plate. The 384-well plate was then centrifuged at 500 rpm for 1 minute, and then placed in a 37° C., 5% CO2 incubator for 6 days of cultivation. Six days later, the cell culture plate was equilibrated for 10 minutes at room temperature, 25 μL of Cell Titer-Glo was added to each well, and the mixture was shaken and mixed well and let stand for 5 minutes. The luminescence values for samples in various wells were read using a microplate reader in Luminescence mode.
The percentage of inhibition of cell proliferation by the test compound at each concentration was calculated by comparing with the values of the control group (0.2% DMSO). The IC50 values of the compounds were obtained by concentration-inhibition rate nonlinear regression analysis of the test compounds using GraphPad Prism 9.

HT-29 cells = test: HT-29 cell proliferation (Cell Titer-Glo, 6 days); format: cell-based
Outline: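 Cells seeded at 4,170 cells/mL in McCoy's 5a with 10% FBS, compound added from DMSO stock, grown 6 days at 37 °C, 5% CO2. Cell Titer-Glo luminescence; inhibition vs 0.3% DMSO control, IC50 by nonlinear regression.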

| SMILES | IC50 (OVCAR-3 cells) [nM] | IC50 (HCT116 cells; Homo sapiens, HCT-116, 144 h) [nM] | IC50 (HT-29 cells) [nM] | IC50 (OVCAR-3 cells; Homo sapiens, OVCAR-3, 240 h) [nM] | IC50 (HT-29 cells; Homo sapiens, HT-29, 144 h) [nM] | IC50 (HCT116 cells) [nM] |
| --- | --- | --- | --- | --- | --- | --- |
| CC1Cn2c(cc3c(NC(=O)c4ccc(NS(=O)(=O)CCO)cc4N4CCC5(CC4)CC5)cccc32)C(C)O1 (single isomer, unassigned) [Compound 312-P3, N-(1,3-dimethyl-3,4-dihydro-1H-[1,4]oxazino[4,3-a]indol-9-yl)-4-((2-hydroxyethyl)sulfonamido)-2-(6-azaspiro[2.5]oct-6-yl)benzamide] | ≤ 50 | > 10000 | ≤ 200 |  |  |  |
| N#Cc1ccc(NC(=O)c2ccc(NS(=O)(=O)CCO)cc2N2CCC(=C(F)F)CC2)c2cc3n(c12)CCOC3 [Example 364, N-(6-cyano-3,4-dihydro-1H-[1,4]oxazino[4,3-a]indol-9-yl)-2-(4-(difluoromethylene)piperidin-1-yl)-4-((2-hydroxyethyl)sulfonamido)benzamide] |  | 8200 |  | 50 to 500 | 200 to 1000 |  |
| CC1(C)Cn2c(cc3c(NC(=O)c4ccc(NS(=O)(=O)CCO)cc4N4CCC5(CC4)CC5)ccc(C#N)c32)CO1 [Compound 392, N-(6-cyano-3,3-dimethyl-3,4-dihydro-1H-[1,4]oxazino[4,3-a]indol-9-yl)-4-((2-hydroxyethyl)sulfonamido)-2-(6-azaspiro[2.5]oct-6-yl)benzamide] |  | > 10000 |  | ≤ 50 | ≤ 200 |  |
| CC1(C)Cn2c(nc3c(NC(=O)c4ccc(NS(=O)(=O)CCO)cc4N4CCC5(CC4)CC5)cccc32)CO1 [Compound 391, N-(3,3-dimethyl-3,4-dihydro-1H-benzo[4,5]imidazo[2,1-c][1,4]oxazin-9-yl)-4-((2-hydroxyethyl)sulfonamido)-2-(6-azaspiro[2.5]octan-6-yl)benzamide] |  | > 10000 |  | ≤ 50 | ≤ 200 |  |
| CC1(C)Cn2c(cc3c(NC(=O)c4ccc(NS(=O)(=O)CCO)cc4N4CCC5(CC4)CC5)cccc32)CO1 [Example 371, N-(3,3-dimethyl-3,4-dihydro-1H-[1,4]oxazino[4,3-a]indol-9-yl)-4-(2-hydroxyethylsulfonamido)-2-(6-azaspiro[2.5]octan-6-yl)benzamide] |  | > 10000 |  | ≤ 50 | ≤ 200 |  |
| CNc1cc(NS(=O)(=O)CCO)cc(N2CCC3(CC2)CC3)c1C(=O)Nc1cc(C)nc(N2CCC(F)(F)CC2)n1 [Example 4, N-(2-(4,4-difluoropiperidin-1-yl)-6-methylpyrimidin-4-yl)-4-(2-hydroxyethylsulfonamide)-2-methylamino-6-(6-azaspiro[2.5]octan-6-yl)benzamide] | ≤ 50 |  | ≤ 200 |  |  | 2600 |
| CC1(C)Cn2c(cc3c(NC(=O)c4ccc(NS(=O)(=O)CCO)cc4N4CCC(=C(F)F)CC4)cccc32)CO1 [Example 370, 2-(4-(difluoromethylene)piperidin-1-yl)-N-(3,3-dimethyl-3,4-dihydro-1H-[1,4]oxazino[4,3-a]indol-9-yl)-4-((2-hydroxyethyl)sulfonamido)benzamide] |  | > 10000 |  | ≤ 50 | 200 to 1000 |  |
